# Biological target: T1, hP2X7 (Homo sapiens, UniProt Q99572)
# T1 construct: expressed in transfected cells; host or cells: 1321N1 astrocytoma cells
# T1 sequence (Q99572 1-595): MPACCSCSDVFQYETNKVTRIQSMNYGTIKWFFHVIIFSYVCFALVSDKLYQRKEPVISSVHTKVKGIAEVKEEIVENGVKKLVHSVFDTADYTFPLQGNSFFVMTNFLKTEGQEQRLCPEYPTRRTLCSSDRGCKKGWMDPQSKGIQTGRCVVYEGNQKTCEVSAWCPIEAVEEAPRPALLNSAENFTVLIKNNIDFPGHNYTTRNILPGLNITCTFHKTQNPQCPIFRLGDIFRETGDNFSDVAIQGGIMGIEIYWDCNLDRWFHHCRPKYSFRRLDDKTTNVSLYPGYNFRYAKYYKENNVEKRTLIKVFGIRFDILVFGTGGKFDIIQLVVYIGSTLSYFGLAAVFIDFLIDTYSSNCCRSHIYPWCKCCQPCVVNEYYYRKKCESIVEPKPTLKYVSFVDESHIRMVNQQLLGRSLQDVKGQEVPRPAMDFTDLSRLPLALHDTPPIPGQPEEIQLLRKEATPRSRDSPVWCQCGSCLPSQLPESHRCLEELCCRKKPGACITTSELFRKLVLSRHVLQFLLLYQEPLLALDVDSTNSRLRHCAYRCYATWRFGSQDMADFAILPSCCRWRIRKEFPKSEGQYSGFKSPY
# Experiment: P2X7 antagonism: ligand-induced Ca2+ flux in 1321N1 astrocytoma cells overexpressing hP2X7
# Type: cell-based
# Conditions: pIC50 = -log(IC50), read-out: hP2RX7pIC50 (mean pIC50 values) (converted)
# Description: Extracellular binding of ATP to P2X7 that is expressed in the cell-membrane opens the ligand gated cation channel and allows Ca^2+ entry into the cell. This ligand-induced Ca^2+ flux was measured in 1321N1 astrocytoma cells overexpressing hP2X7 for the compounds of the present invention.
# The calcium assay kit used (Molecular Devices, R8090), provides a Ca^2+ sensitive dye together with a quenching dye. However, no specifications are given by the manufacturer. The kit most likely consists of a membrane permeable acetoxymethyl (AM) ester of a fluorescent Ca^2+ indicator, such as fluo-4 or fluo-3. Upon cellular uptake, the AM esters get cleaved by esterases, liberating the Ca^2+-sensitive dye which can then bind calcium. The dyes have an absorption spectrum compatible with excitation at 488 nm by argon laser sources and a large fluorescence intensity increase in response to Ca^2+ binding without an accompanying spectral shift. Emission wavelength is in the range of 510-560 nm.
# The fluorescence, and thus the changes in intracellular [Ca^2+] in the 1321N1 cells was monitored in time before and after addition of the agonist. The effect of the antagonist was measured as % control and as IC50.
row,Structure (SMILES),IC50 [nM]
1,CN(C)c1ncc(C(CNC(=O)c2cccc3nc(NCC4CC4)ccc23)N2CCOCC2)cn1 (stereo not drawn) [Compound 245],170
2,O=C(NCC(c1cnc(OCC2CC2)nc1)N1CCC(F)(F)CC1)c1cccc2nc(N3CCOCC3)ccc12 (stereo not drawn) [Compound 246],32.4
3,O=C(NCC(c1cnc(OCC2CC2)nc1)N1CCC(F)(F)CC1)c1cccc2nc(NC3CC3)ccc12 (stereo not drawn) [Compound 247],20.9
4,CC(C)Oc1ncc(C(CNC(=O)c2cccc3nc(NCC4CC4)ccc23)N2CCC(F)(F)CC2)cn1 (stereo not drawn) [Compound 248],33.1
5,O=C(NCC(c1cnc(C2CCCC2)nc1)N1CCC(F)(F)CC1)c1cccc2nc(N3CCOCC3)ccc12 (stereo not drawn) [Compound 249],51.3
6,CC(=O)N1CCN(c2ncc(C(CNC(=O)c3cccc4nc(N5CCOCC5)ccc34)N3CCC(F)(F)CC3)cn2)CC1 (stereo not drawn) [Compound 250],77.6
7,CC(=O)N1CCN(c2ncc(C(CNC(=O)c3cccc4nc(NC5CC5)ccc34)N3CCC(F)(F)CC3)cn2)CC1 (stereo not drawn) [Compound 251],64.6
8,O=C(NCC(c1cnc(N2CCOCC2)nc1)N1CCC(F)(F)CC1)c1cccc2nc(NCC3CC3)ccc12 (stereo not drawn) [Compound 252],49
9,CCOc1ncc(C(CNC(=O)c2cccc3nc(N4CCOCC4)ccc23)N2CCC(F)(F)CC2)cn1 (stereo not drawn) [Compound 253],36.3
10,CCOc1ncc(C(CNC(=O)c2cccc3nc(NC4CC4)ccc23)N2CCC(F)(F)CC2)cn1 (stereo not drawn) [Compound 254],29.5
11,O=C(NCC(c1cncnc1)N1CCC(F)(F)CC1)c1cccc2nc(NC3CC3)ccc12 (stereo not drawn) [Compound 256],44.7
12,CCOc1ncc(C(CNC(=O)c2cccc3nc(NCC4CC4)ccc23)N2CCC(F)(F)CC2)cn1 (stereo not drawn) [Compound 257],26.3
13,CC(C)c1ncc(C(CNC(=O)c2cccc3nc(NCC4CC4)ccc23)N2CCC(F)(F)CC2)cn1 (stereo not drawn) [Compound 258],44.7
14,O=C(NCC(c1cnc(N2CCCC2)nc1)N1CCOCC1)c1cccc2nc(NC3CC3)ccc12 (stereo not drawn) [Compound 259],97.7
15,COc1ncc(C(CNC(=O)c2cccc3nc(NCC4CC4)ccc23)N2CCC(F)(F)CC2)cn1 (stereo not drawn) [Compound 260],27.5
16,CC(C)c1ncc(C(CNC(=O)c2cccc3nc(NC4CC4)ccc23)N2CCC(F)(F)CC2)cn1 (stereo not drawn) [Compound 261],37.2
17,O=C(NCC(c1cnc(N2CCCC2)nc1)N1CCC(F)(F)CC1)c1cccc2nc(NCC3CC3)ccc12 (stereo not drawn) [Compound 262],56.2
18,O=C(NCC(c1cnc(NC2CC2)nc1)N1CCC(F)(F)CC1)c1cccc2nc(NCC3CC3)ccc12 (stereo not drawn) [Compound 263],37.2
19,O=C(NCC(c1cnc(N2CCCC2)nc1)N1CCOCC1)c1cccc2nc(NCC3CC3)ccc12 (stereo not drawn) [Compound 264],77.6
20,CC(C)c1ncc(C(CNC(=O)c2cccc3nc(N4CCOCC4)ccc23)N2CCC(F)(F)CC2)cn1 (stereo not drawn) [Compound 265],64.6

row,Structure (SMILES),IC50 [nM]
1,CN(C)c1ncc(C(CNC(=O)c2cccc3nc(NCC4CC4)ccc23)N2CCC(F)(F)CC2)cn1 (stereo not drawn) [Compound 266],50.1
2,Nc1ncc(C(CNC(=O)c2cccc3nc(NCC4CC4)ccc23)N2CCC(F)(F)CC2)cn1 (stereo not drawn) [Compound 267],115
3,O=C(NCC(c1cncnc1)N1CCC(F)(F)CC1)c1cccc2nc(N3CCOCC3)ccc12 (stereo not drawn) [Compound 268],33.1
4,O=C(NCC(c1cnc(N2CCOCC2)nc1)N1CCC(F)(F)CC1)c1cccc2nc(N3CCOCC3)ccc12 (stereo not drawn) [Compound 269],229
5,O=C(NCC(c1cnc(NC2CC2)nc1)N1CCC(F)(F)CC1)c1cccc2nc(NC3CC3)ccc12 (stereo not drawn) [Compound 270],102
6,CC1CN(c2ccc3c(C(=O)NCC(c4cnc(C(F)(F)F)nc4)N4CCOCC4)cccc3n2)CCN1 (stereo not drawn) [Compound 271],107
7,CC(C)N(C)c1ccc2c(C(=O)NCC(c3cnc(C(F)(F)F)nc3)N3CCOCC3)cccc2n1 (stereo not drawn) [Compound 272],60.3
8,CC1(C)CCN(c2ccc3c(C(=O)NCC(c4cnc(C(F)(F)F)nc4)N4CCOCC4)cccc3n2)CC1 (stereo not drawn) [Compound 273],112
9,CCC1CN(c2ccc3c(C(=O)NCC(c4cnc(C(F)(F)F)nc4)N4CCOCC4)cccc3n2)CCN1 (stereo not drawn) [Compound 274],145
10,O=C(NCC(c1cnc(C(F)(F)F)nc1)N1CCOCC1)c1cccc2nc(NCC3CCCC3)ccc12 (stereo not drawn) [Compound 275],70.8
11,CC(C)(C)C1CCN(c2ccc3c(C(=O)NCC(c4cnc(C(F)(F)F)nc4)N4CCOCC4)cccc3n2)CC1 (stereo not drawn) [Compound 276],813
12,CC(C)OC1CCN(c2ccc3c(C(=O)NCC(c4cnc(C(F)(F)F)nc4)N4CCOCC4)cccc3n2)CC1 (stereo not drawn) [Compound 277],46.8
13,COCC(C)Nc1ccc2c(C(=O)NCC(c3cnc(C(F)(F)F)nc3)N3CCOCC3)cccc2n1 (stereo not drawn) [Compound 278],87.1
14,CCN(CC)c1ccc2c(C(=O)NCC(c3cnc(C(F)(F)F)nc3)N3CCOCC3)cccc2n1 (stereo not drawn) [Compound 279],77.6
15,CC(C)CN1CCN(c2ccc3c(C(=O)NCC(c4cnc(C(F)(F)F)nc4)N4CCOCC4)cccc3n2)CC1 (stereo not drawn) [Compound 280],95.5
16,COCCN1CCN(c2ccc3c(C(=O)NCC(c4cnc(C(F)(F)F)nc4)N4CCOCC4)cccc3n2)CC1 (stereo not drawn) [Compound 281],75.9
17,CCc1ncc(C(CNC(=O)c2cccc3nc(N4CCCC4)ccc23)N2CCC(F)(F)CC2)cn1 (stereo not drawn) [Compound 282],75.9
18,O=C(NCC(c1cnc(-c2ccccc2)nc1)N1CCC(F)(F)CC1)c1cccc2nc(N3CCCC3)ccc12 (stereo not drawn) [Compound 283],115
19,CC(C)Oc1ncc(C(CNC(=O)c2cccc3nc(N4CCCC4)ccc23)N2CCOCC2)cn1 (stereo not drawn) [Compound 284],67.6
20,CC(C)N1CCN(c2ccc3c(C(=O)NCC(c4cnc(N5CCCC5)nc4)N4CCOCC4)cccc3n2)CC1 (stereo not drawn) [Compound 285],158

row,Structure (SMILES),IC50 [nM]
1,COc1ncc(C(CNC(=O)c2cccc3nc(N4CCCC4)ccc23)N2CCC(F)(F)CC2)cn1 (stereo not drawn) [Compound 286],38
2,O=C(NCC(c1cnc(N2CCNCC2)nc1)N1CCC(F)(F)CC1)c1cccc2nc(N3CCOCC3)ccc12 (stereo not drawn) [Compound 287],105
3,CC(C)c1ncc(C(CNC(=O)c2cccc3nc(N4CCN(C(C)C)CC4)ccc23)N2CCOCC2)cn1 (stereo not drawn) [Compound 288],135
4,CC(C)Oc1ncc(C(CNC(=O)c2cccc3nc(N4CCN(C(C)C)CC4)ccc23)N2CCOCC2)cn1 (stereo not drawn) [Compound 289],64.6
5,CCc1ncc(C(CNC(=O)c2cccc3nc(N4CCCC4)ccc23)N2CCOCC2)cn1 (stereo not drawn) [Compound 290],135
6,CC(C)N1CCN(c2ccc3c(C(=O)NCC(c4cnc(OCC5CC5)nc4)N4CCC(F)(F)CC4)cccc3n2)CC1 (stereo not drawn) [Compound 291],46.8
7,CCc1ncc(C(CNC(=O)c2cccc3nc(N4CCN(C(C)C)CC4)ccc23)N2CCC(F)(F)CC2)cn1 (stereo not drawn) [Compound 292],115
8,O=C(NCC(c1cnc(C2CCCC2)nc1)N1CCC(F)(F)CC1)c1cccc2nc(NCC3CC3)ccc12 (stereo not drawn) [Compound 293],105
9,O=C(NCC(c1cnc(OC2CCC2)nc1)N1CCC(F)(F)CC1)c1cccc2nc(NCC3CC3)ccc12 (stereo not drawn) [Compound 294],67.6
10,CCc1ncc(C(CNC(=O)c2cccc3nc(N4CCN(C(C)C)CC4)ccc23)N2CCOCC2)cn1 (stereo not drawn) [Compound 295],209
11,CCc1ncc(C(CNC(=O)c2cccc3nc(NCC4CC4)ccc23)N2CCOCC2)cn1 (stereo not drawn) [Compound 296],123
12,CC(C)N1CCN(c2ccc3c(C(=O)NCC(c4cncnc4)N4CCC(F)(F)CC4)cccc3n2)CC1 (stereo not drawn) [Compound 297],32.4
13,CCOc1ncc(C(CNC(=O)c2cccc3nc(N4CCN(C(C)C)CC4)ccc23)N2CCC(F)(F)CC2)cn1 (stereo not drawn) [Compound 298],45.7
14,CC(C)c1ncc(C(CNC(=O)c2cccc3nc(N4CCN(C(C)C)CC4)ccc23)N2CCC(F)(F)CC2)cn1 (stereo not drawn) [Compound 299],110
15,CC(C)N1CCN(c2ccc3c(C(=O)NCC(c4cnc(OC5CCC5)nc4)N4CCC(F)(F)CC4)cccc3n2)CC1 (stereo not drawn) [Compound 300],37.2
16,O=C(NCC(c1cnc(N2CCNCC2)nc1)N1CCC(F)(F)CC1)c1cccc2nc(N3CCCC3)ccc12 (stereo not drawn) [Compound 301],166
17,CC(C)N1CCN(c2ccc3c(C(=O)NCC(c4cnc(N)nc4)N4CCC(F)(F)CC4)cccc3n2)CC1 (stereo not drawn) [Compound 302],81.3
18,CCOc1ncc(C(CNC(=O)c2cccc3nc(N4CCCC4)ccc23)N2CCOCC2)cn1 (stereo not drawn) [Compound 303],52.5
19,O=C(NCC(c1cnc(OCC2CC2)nc1)N1CCC(F)(F)CC1)c1cccc2nc(N3CCCC3)ccc12 (stereo not drawn) [Compound 304],28.2
20,CC(C)Oc1ncc(C(CNC(=O)c2cccc3nc(N4CCCC4)ccc23)N2CCC(F)(F)CC2)cn1 (stereo not drawn) [Compound 305],100

# — patent US8431704B2, “Quinoline or isoquinoline substituted P2X7 antagonists” (Janssen Pharmaceutica NV, priority 2008, dated 2013)
